One data set relates to gastric secretion. Conditions: German Patent Offenlegungsschrift 2,313,868; cited from earlier work.
The conditions of data set [1]: cited from earlier work.
The test system of data set [2] is indomethacin-induced gastric ulceration in rats. Nature of the data set: Inhibition of indomethacin-induced gastric ulceration by prostaglandins, rats. It is filed as in vivo, Sprague-Dawley strain male rats. Conditions: for Inhibitory ratio (%): 5 hours; for ED50: Rattus norvegicus, po, 5 h, p.o., indomethacin 30 mg/kg i.p., read-out: ED50 (50% inhibition of the ulcer formation). The method, then: The method employed for the production and evaluation of indomethacin-induced ulcers was essentially same as described by Lee, Mollison and Cheng in Archives Internationales de Pharmacodynamie et de Therapie, vol. 191, page 370 - 377 and by Lippmann in Prostaglandins, vol. 7, page 1 - 10. Sprague-Dawley strain male rats weighing 200 - 220 g were fasted 20 hours with free access to water until the start of experiment. Indomethacin was suspended in 0.4% Tween 80 (surface active agent, product of Atlas Powder Co. U.S.A.) solution and given intraperitoneally into the rats at a dose of 30 mg/kg body weight. The test drugs were dissolved in physiological saline with aid of an ultrasonicator and administered perorally immidiately after the administration of indomethacin. The animals were killed 5 hours later and the ulcer formation in the glandular portion of the stomach was determined.

For data set [3], the system named is stress-induced ulceration in rats. Nature of the data set: Inhibition of the stress-induced ulceration by prostaglandins, rats. Conditions: for Inhibitory ratio (%): stress 8 hr at 23° C; for anti-stress ulcer potency relative to Compound C / anti-stress ulcer activity compared with PGE1 / anti-stress ulcer activity compared with PGE2: oral; for anti-stress ulcer potency relative to Compound C: versus Compound C; for anti-stress ulcer activity compared with PGE1: versus PGE1; for anti-stress ulcer activity compared with PGE2: versus PGE2. In kind it is in vivo, Donryu strain male rats. The procedure: The method employed for the production and evaluation of stress ulcer was essentially same as described by Takagi and Okabe in Journal of Pharmacology vol. 18, pages 9-18 (Japan). Donryu strain male rats, 200 - 230 g in weight, were used. Animals were placed in the stress cage and immersed in a water bath kept at 23° C for 8 hr to the height of the xiphoid of the animal. At the end of the stress, the animals were killed by a blow, and stomach was removed, inflated with 10 ml of 1% formalin solution and placed into 1% formalin solution. Thereafter the stomach was cut along the greater curvature and examined for lesions macroscopically. The ulcer index was calculated as the sum of the length of each lesion in the stomach. Inhibitory ratio of ulceration was calculated for each dose. The test drugs were dissolved into 0.4% Tween 80 solution with aid of an ultrasonicator and administered orally (0.2 ml/100 g) immediately before the stress.

The next data set has as its system intestinal tube. Conditions: stated for prior prostaglandins; cited from earlier work.
The next data set can be described thus: diarrheal activity. Conditions: in words. In kind it is in vivo.
A short description of the next data set: vasodepressor activity. Conditions: in words. In kind it is in vivo.
For data set [4] the following is noted: stated for prior prostaglandins; cited from earlier work.

For the compound `CCCCCC(O)/C=C/C1C(C)CC(=O)C1CCCCCCC(=O)O` (stereo not drawn) [9-oxo-11β-methyl-15α(or β)-hydroxyprost-13(trans)-enoic acid], the “inhibition of gastric secretion” value in the data set with gastric secretion is “inhibit gastric secretion”. For the same compound, the “anti-ulcerogenic activity compared with prostaglandins E1 and E2” value in data set [1] (versus prostaglandins E1 and E2) was “extremely lower than that of prostaglandins E1 and E2”.
What is called ED50 is the dose that gives a 50% effect, or the effect in half of the subjects. Regarding `CCCCC[C@H](O)/C=C/[C@H]1[C@H](C)CC(=O)[C@@H]1CCCCCCC(=O)O` (relative stereo) [Compound C, 9-Oxo-11α-methyl-15α-hydroxyprost-13(trans)-enoic acid], the “Inhibitory ratio (%)” value in data set [2] (1.25 mg/kg p.o.) is recorded as 52%; in data set [2] (2.5 mg/kg p.o.), 68%; in data set [3] (5.0 mg/kg p.o.), 9%; in data set [3] (10 mg/kg p.o.), 40%. In data set [2], the median effective dose (ED50) was 1.18 mg/kg.
As for `CCCCC(C)(C)[C@H](O)/C=C/[C@H]1[C@H](C)CC(=O)[C@@H]1CCCCCCC(=O)O` (relative stereo) [Compound A, 9-Oxo-11α,16,16-trimethyl-15α-hydroxyprost-13(trans)-enoic acid], the “Inhibitory ratio (%)” value in data set [2] (0.25 mg/kg p.o.) turned out to be 63%; in data set [2] (0.50 mg/kg p.o.), 71%; in data set [3] (0.3 mg/kg p.o.), 12%; in data set [3] (1.0 mg/kg p.o.), 73%. In addition, in data set [2], the ED50 came to 0.16 mg/kg. Further, the “anti-stress ulcer potency relative to Compound C” value in data set [3] was “more than 10 times”. For the same compound, the “anti-stress ulcer activity compared with PGE1” value in data set [3] is given as “significantly more potent than that of PGE1”. The “anti-stress ulcer activity compared with PGE2” value in data set [3] is reported as “equally potent as or slightly more potent than that of PGE2”.
For `CCCCC(C)(C)[C@H](O)/C=C/[C@H]1[C@H](C)CC(=O)[C@@H]1CCCCCCC(=O)OC` (relative stereo) [Compound B, Methyl 9-oxo-11α,16,16-trimethyl-15α-hydroxyprost-13(trans)-enoate], the “Inhibitory ratio (%)” value in data set [2] (0.25 mg/kg p.o.) stood at 49%; in data set [2] (0.50 mg/kg p.o.), 67%; in data set [3] (0.3 mg/kg p.o.), 11%; in data set [3] (1.0 mg/kg p.o.), 92%. Besides, the 50% effective dose (ED50) in data set [2] came out at 0.26 mg/kg. Besides, the “anti-stress ulcer potency relative to Compound C” value in data set [3] is “more than 10 times”. Also, the “anti-stress ulcer activity compared with PGE1” value in data set [3] is listed as “significantly more potent than that of PGE1”. Moreover, in data set [3], the “anti-stress ulcer activity compared with PGE2” value was “equally potent as or slightly more potent than that of PGE2”.
As for `CCCCC[C@H](O)/C=C/[C@H]1[C@@H](C)CC(=O)[C@@H]1CCCCCCC(=O)O` (relative stereo) [Compound D, 9-Oxo-11β-methyl-15α-hydroxyprost-13(trans)-enoic acid, reference compound], the “Inhibitory ratio (%)” value in data set [2] (1.25 mg/kg p.o.) is on record as 43%; in data set [2] (2.5 mg/kg p.o.), 61%. For the same compound, in data set [2], the ED50 was determined as 1.64 mg/kg.
With `CCCCC[C@H](O)/C=C/[C@H]1[C@H](O)CC(=O)[C@@H]1CCCCCCC(=O)O` [PGE1], the intestinal tube-contracting activity entry with intestinal tube is “potent hypotensive and intestinal tube-contracting activities”.
`CCCCC[C@H](O)/C=C/[C@H]1[C@H](O)CC(=O)[C@@H]1C/C=C\CCCC(=O)O` [PGE2, reference compound]: the “Inhibitory ratio (%)” value was determined as 57% in data set [2] (0.05 mg/kg p.o.), 79% in data set [2] (0.25 mg/kg p.o.), 17% in data set [3] (0.3 mg/kg p.o.) and 60% in data set [3] (1.0 mg/kg p.o.). In data set [2] (PGE2 versus compound A), the “potency relative to compound A in inhibition of the indomethacin-induced ulcer formation” value is on record as “approximately 5 times”. In addition, the ED50 in data set [2] turned out to be 0.03 mg/kg. Moreover, in “diarrheal activity”, the “diarrhea (side effect)” value is “exhibits various side effects including diarrhea”. In addition, the vasodepressor activity result in “vasodepressor activity” is “vasode-pressor activity”. Moreover, in data set [4], the hypotensive activity result was “potent hypotensive”. For the same compound, the intestinal tube-contracting activity result in the data set with intestinal tube was “potent hypotensive and intestinal tube-contracting activities”. Further, in data set [1] (U.S. Pat. No. 3,781,429, Prostaglandins 1974, 6, 523-532), the anti-ulcerogenic effects result is reported as “anti-ulcerogenic effects”.

These data come from patent US3996263A, “9-Oxo-11α-methyl-15.EPSILON.-hyroxyprost-13(trans)-enoic acid derivatives and process for the preparaion thereof” (priority 1975, dated 1976).
